Laboratory results as given in patent publication US20240400692A1, “CELIAC DISEASE EPITOPES” (NEXTERA AS, priority 2021, published 2024).

How the values were obtained:
[1] = test system: 107 antibody; assay: FACS of antibody binding to peptides pulsed onto DQ2.5+ Raji cells, 107 antibody; type: cell-based; details: 50 μM peptide pulsed onto human DQ2.5+ Raji cells
Protocol: (§1) Assessment of antibody binding to the A0A0E3SZN6_TRIUA epitope candidate. […] The indicated peptides (50 μM) were pulsed onto human DQ2.5*Raji cells and antibody binding was tested in FACS as described (B).
(§2) Assessment of antibody binding to the physiological relevant forms of the A0A0E3SZN6_TRIUA epitope candidate. The T. urartuA0A0E3SZN6_TRIUA (A) and T. aestivum Q9M4L6_WHEAT (B) sequences were in silico digested with tryspin and chymotrypsin, and the relevant digested fragments shown underlined (A and B). […] The known P positions are indicated (C). The indicated peptides were pulsed (50 μM) onto human DQ2.5*Raji cells and antibody binding was tested in FACS as described (D).
(§3) To identify putative gliadin-derived sequences different from, but with similarity to, the 30 DOQ.2.5-glia-α1a epitope (PFPQP{right arrow over (E)}LPY (SEQ ID NO:4)), the UniProtKB protein database was searched using the ScanProsite tool (https://prosite.expasyorg/scanprosite/). […] More specifically, we fixed the proline (P) in p1, the glutamine (Q) in p6, the tyrosine (Y) in p9, and P was disallowed in the position p10 after the p9 Y (underlined). To focus the output of the searches, we restricted the output to the Triticum taxonomic group. […] In some cases, Q residues were exchanged with glutamate (E) in the peptide synthesis in order to mimic positional deamidation.

[2] = test system: T cells in HLA-DQ2.5 typed PBMCs; assay: Intracellular IFN-γ flow assay of peptide-stimulated PBMCs; type: cell-based, human; details: for expansion of IFN-γ positive cells in the CD3+/CD4− cell population / expansion of IFN-γ positive CD4 T cells, CeD donor: 20 μM peptide; for expansion of IFN-γ positive cells in the CD3+/CD4− cell population / expansion of IFN-γ positive CD4 T cells, CeD donor / presence of response in tested CeD PBMC material / responses in healthy controls: 48h; for expansion of IFN-γ positive cells in the CD3+/CD4− cell population: FIG. 14C; for peptide reactivity, CeD donor 595: no statistical difference; for expansion of IFN-γ positive CD4 T cells, CeD donor: CeD donor 595, average, FIG. 14B; for presence of response in tested CeD PBMC material: CeD donors 585, 595 and 600; for presence of response in tested CeD PBMC material / responses in healthy controls: 20 μM; for responses in healthy controls: two HCs (557 and 558), FIG. 15B
Description: Intracellular IFNγ flow assessment of CD4 T cell peptide stimulatory capacity using PBMCs. Cryopreserved HLA-DQ2.5 typed PBMCs from confirmed healthy controls (HC) and CeD patients were purchased (HemaCare-Cellero) and used in autologous in vitro T cell peptide stimulation assays followed by intracellular IFNγ staining in flow. (A) PBMCs from CeD donor 595 were used to set intracellular IFNγ baseline detection gates on CD3/CD4 T cells using anti-IFNγ-PE. (B and C) Bar graph representing intracellular IFNγ detection in CD4+/IFNγ+(B) and CD4−/IFNγ+(C) gates as illustrated in A. PBMCs from CeD donor 595 and HC 575 were stimulated with 20 μM DQ2.5-glia 33-mer (N-[…]-C(SEQ ID NO:59)) and A0A0E3SZN6_p6E_long (N-[…]-C(SEQ ID NO:30)), for 48h followed by intracellular T cell IFNγ detection.
Intracellular IFN-γ flow assessment of CD4 T cell peptide stimulatory capacity using PBMCs. Cryopreserved HLA-DQ2.5 typed PBMCs from confirmed healthy controls (HC) and CeD patients were purchased (HemaCare-Cellero) and used in autologous in vitro T cell peptide stimulation assays followed by intracellular IFN-γ staining in flow. Intracellular IFN-γ baseline detection gates on CD3/CD4 T cells using anti-IFN-γ-PE were set as in FIG. 14.
PBMCs from CeD donors (585, 595 and 600) and HCs (557 and 558) were stimulated with 20 μM DQ2.5-glia 33-mer (N-[…]-C(SEQ ID NO:59)) and A0A0E3SZN6_p6E_long (N-[…]-C(SEQ ID NO:30)), for 48h followed by intracellular T cell IFN-γ detection (A and B). Values are presented as mean values and ±SEM.
Peptide-stimulated PBMCs were assessed for intracellular IFN-γ following reagents and the standard protocol from BioLegend (https://www.biolegend.com/). Briefly, cryopreserved human HLA-DQ2.5^+ PBMCs (HemaCare-Cellero) where gently thawed and washed in ice-cold PBS before resuspended into RPMI1640 supplemented with 10% FCS (v/v) before volumes of 1 ml (about 2×10^7 cells) were aliquoted into a 24-well microtiter plate (NUNC). One set of wells received either 20 μM of peptide (either A0A0E3SZN6_p6E_long ([…] (SEQ ID NO:30)) or 33-mer ([…] ([…]))). […] The cells were grown at standard conditions at 37° C. for 36h before Brefaldin A (BioLegend) and Monensin (BioLegend) was added, and incubation continued for another 12 h. The cells were then assessed for intracellular IFN-γ by flow. Data was acquired on a BD Accuri C6 cytometer (BD Biosciences) and analyzed using FlowJo software V10 (Tree Star).

[3] = test system: T cells in HLA-DQ2.5 typed PBMCs; assay: as above; type: cell-based, human; details: HC donor 557; 20 μM peptide; 48h; FIG. 14B
[4] = test system: 4.7C antibody; assay: FACS of antibody binding to peptides pulsed onto DQ2.5+ Raji cells, 4.7C antibody; type: cell-based; details: 50 μM peptide pulsed onto human DQ2.5+ Raji cells
Protocol: as §1, §2, §3

[5] = biological target: T1, chymotrypsin (Bos taurus, UniProt P00766); assay: In vitro chymotrypsin digest and mass spectrometry of recombinant gliadin; details: chymotrypsin 200:1 (w:w), 37° C., 24h; MS; FIG. 9E
T1 construct: purchased Sigma; host or cells: substrate gliadin: E. coli BL21 (DE3)pLysS, made by Genscript
Description: Assessment of in vitro chymotrypsin proteolysis of the A0A0E3SZN6_TRIUA protein. The T. aestivum Q9M4L6_WHEAT (A), T. urartu A0A0E3SZN6_TRIUA (B) and T. aestivum Q9FUW7_WHEAT (C) proteins where produced and affinity purified from E. coli, followed by in vitro chymotrypsin digest and mass spectrometry analysis of the resulting peptide segments (D, E and F). The anticipated 9-mer core regions of the relevant epitopes are indicated by enumeration (D, E and F). Panel A: SDS-PAGE and Western blot analysis of Q9M4L6_WHEAT. Lane M1: Protein Marker, GenScript, Cat. No. M00516, Lane M2: Protein Marker, GenScript, Cat. No. M00521, Lane 1: BSA ([…]), Lane 2: Q9M4L6_WHEAT (Reducing condition, […]), Lane 3: Q9M4L6_WHEAT (Non-reducing condition, 2.00 μg), Lane 4: Q9M4L6_WHEAT (Reducing condition), Lane 5: Q9M4L6_WHEAT (Non-reducing condition), Primary antibody: Mouse-anti-His mAb (GenScript, Cat. No. A00186). Panel B: SDS-PAGE and Western blot analysis of A0A0E3SZN6_TRIUA. […]
Recombinant gliadins were in vitro chymotrypsin digested essentially as described (Molberg O, et al., Methods Mol Med. 2000; 41:105-24). […] MS spectra were analyzed by using the PEAKS studio software (Bioinformatics Solutions Inc.) searched against a custom databased made by the respective gliadin Uniprot accession codes.

[6] = A0A0E3SZN6 peptide versus 33-mer, FIG. 15A

Sequence of 4.7C antibody (as listed by the source, other chains not shown): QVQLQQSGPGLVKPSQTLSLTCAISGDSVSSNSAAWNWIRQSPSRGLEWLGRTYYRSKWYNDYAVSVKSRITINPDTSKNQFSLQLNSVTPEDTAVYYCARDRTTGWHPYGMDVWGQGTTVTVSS
Sequence of 4.7C antibody (as listed by the source, other chains not shown): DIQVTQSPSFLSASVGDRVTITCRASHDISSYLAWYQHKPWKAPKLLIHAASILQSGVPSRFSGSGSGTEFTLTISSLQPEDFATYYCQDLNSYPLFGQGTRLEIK
Sequence of 107 antibody (as listed by the source, other chains not shown): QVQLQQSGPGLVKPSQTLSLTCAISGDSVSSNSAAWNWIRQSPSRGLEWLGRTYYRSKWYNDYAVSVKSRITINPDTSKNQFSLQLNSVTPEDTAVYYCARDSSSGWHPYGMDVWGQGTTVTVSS

PQQPYPQQQQPYGT (SEQ ID NO:24)
binding of 107 antibody to peptide-pulsed Raji cells (FACS) [1]: not

QPQQPYPQQEQPYGTSL (SEQ ID NO:30) [A0A0E3SZN6 peptide]
expansion of IFN-γ positive cells in the CD3+/CD4− cell population [2]: not seen | peptide reactivity, CeD donor 600 [2, 6]: appeared to favor | peptide reactivity, CeD donor 595 [2, 6]: about equal on both | expansion of IFN-γ positive CD4 T cells, CeD donor [2]: 2.8% | presence of response in tested CeD PBMC material ([2]; FIG. 15A): 2/3 | responses in healthy controls [2]: no responses | expansion of IFN-γ positive CD4 T cells, healthy control [3]: no such expansion

PQQPYPQQEQPYGT (SEQ ID NO:29)
binding of 107 antibody to peptide-pulsed Raji cells (FACS) [1]: bind well | binding of 4.7C antibody to peptide-pulsed Raji cells (FACS) [4]: bind well

LQLQPFPQPELPYPQPELPYPQPELPYPQPQPF (SEQ ID NO:55) [33-mer, reference compound]
expansion of IFN-γ positive cells in the CD3+/CD4− cell population [2]: not seen | peptide reactivity, CeD donor 585 [2, 6]: appeared to favor | peptide reactivity, CeD donor 595 [2, 6]: about equal on both | expansion of IFN-γ positive CD4 T cells, CeD donor [2]: 4.2% | presence of response in tested CeD PBMC material ([2]; FIG. 15A): 2/3 | responses in healthy controls [2]: no responses | expansion of IFN-γ positive CD4 T cells, healthy control [3]: no such expansion

PYPQQEQPY (SEQ ID NO:25) [p6 deamidated 9-mer]
binding of 107 antibody to peptide-pulsed Raji cells (FACS) [1]: no binding | binding of 4.7C antibody to peptide-pulsed Raji cells (FACS) [4]: no binding

PQQPYPEQEQPYGT (SEQ ID NO:63) [EE]
binding of 107 antibody to peptide-pulsed Raji cells (FACS) [1]: bind well | binding of 4.7C antibody to peptide-pulsed Raji cells (FACS) [4]: bind well

PQQPYPEQQQPYGT (SEQ ID NO:62) [form of the peptide with E at position 4 of the 9-mer]
binding of 107 antibody to peptide-pulsed Raji cells (FACS) [1]: not

PQPELPYPQPE (SEQ ID NO:57) [DQ2.5-glia-α2, reference compound]
binding of 107 antibody to peptide-pulsed Raji cells (FACS) [1]: No binding | binding of 4.7C antibody to peptide-pulsed Raji cells (FACS) [4]: No binding

A0A0E3SZN6_TRIUA: omega-gliadin protein of Triticum urartu (SEQ ID NO:1), produced recombinantly in E. coli (QPQQPYP)
processing of the 9-mer core by chymotrypsin proteolysis [5]: no destructive processing was observed of the postulated novel 9-mer core peptide
